Where a SMILES comes first, the peptide text is derived from it. [ ]: non-standard residue; d: D form. Orn(N5-OH,N5-Ac) = CC(=O)N(O)CCC[C@H](N)C(=O)O
Columns and labels:
E. coli = settings: literature; cited from earlier work
[1] = tested on: Salmonella typhimurium TA 2700; assay: Siderophore efficacy, growth promotion of indicator mutant (DIN 58 940); format: cell-based; settings: Salmonella TA 2700; test substances 5 μg/test plate
From the text: (§1) The promotion of growth can be ascertained after the addition of the test substances as external siderophores. In the indicator mutants, the synthesis of the respective siderophores, e.g. pyoverdin, pyochelin, enterobactin, aerobactin or yersiniabactin, or the biosynthesis of aromatic compounds, is blocked, or there is a lack of receptors for enterobactin, pyochelin or pyoverdin and for other important components for the bacterial transport of iron (e.g. the membrane proteins Cir, Fiu, FepA and the TonB protein also). Under conditions where there is a lack of iron, these mutants therefore cannot grow or can only grow in a very retarded manner. In particular, the following indicator mutants were used: Pseudomonas aeruginosa PAO 6609, K 407, E. coli AB 2847, Salmonella typhimurium enb-7, TA 2700, and Yersinia enterocolitica WAH 5030. The controls used were ferrioxamine E for the Pseudomonas strains, ferrioxamine G for the Salmonella strains, and ferrichrome for the E. coli strains. The test substances were each employed in an amount of 5 μg/test plate.

[2] = tested on: Salmonella typhimurium enb-7; assay: as above; format: cell-based; settings: Salmonella enb-7; test substances 5 μg/test plate
From the text: as §1

[3] = tested on: Pseudomonas aeruginosa PAO 6609; assay: as above; format: cell-based; settings: Pseud. aeruginosa PAO 6609; test substances 5 μg/test plate
From the text: as §1

E. coli AB 2847 = assay: as above; format: cell-based; settings: test substances 5 μg/test plate
From the text: as §1

[4] = tested on: Yersinia enterocolitica WAH 5030; assay: as above; format: cell-based; settings: Y. enterocol. WAH 5030; test substances 5 μg/test plate
From the text: as §1

[5] = e.g. thalassaemia; cited from earlier work
B. subtilis = settings: literature; cited from earlier work

Compound: O=C(N[C@H]1COC(=O)[C@@H](NC(=O)c2cccc(O)c2O)COC(=O)[C@@H](NC(=O)c2cccc(O)c2O)COC1=O)c1cccc(O)c1O [enterobactin]
- siderophore activity (E. coli): siderophore for E. coli

Compound: ferrioxamine G [reference compound]
- Growth areas (diameter) of siderophore indicator strain [1]: 20 mm
- Growth areas (diameter) of siderophore indicator strain [2]: 38 mm

Compound: COC(=O)Oc1cccc2c(=O)n([C@@H](C)C(=O)O)c(=O)oc12 [substance 7, 2-L-(8-methoxycarbonyloxy-2,4-dioxobenzoxazin-3-yl)-propionic acid]
- Growth areas (diameter) of siderophore indicator strain [1]: 0 mm
- Growth areas (diameter) of siderophore indicator strain [2]: 10 mm
- Growth areas (diameter) of siderophore indicator strain [3]: 0 mm
- Growth areas (diameter) of siderophore indicator strain (E. coli AB 2847): 0 mm

Compound: ferrioxamine E [reference compound]
- Growth areas (diameter) of siderophore indicator strain [4]: 40 mm
- Growth areas (diameter) of siderophore indicator strain [3]: 35 mm

Compound: C[C@H](NC(=O)Cn1c(=O)oc2c(O)cccc2c1=O)C(=O)O [substance 4, (8-hydroxy-2,4-dioxobenzoxazin-3-yl)-acetyl-L-alanine]
- Growth areas (diameter) of siderophore indicator strain [1]: 0 mm
- Growth areas (diameter) of siderophore indicator strain [2]: 14 mm
- Growth areas (diameter) of siderophore indicator strain [3]: 0 mm
- Growth areas (diameter) of siderophore indicator strain (E. coli AB 2847): 0 mm

Compound: COC(=O)Oc1cccc2c(=O)n(N=Cc3ccc(C(=O)O)cc3)c(=O)oc12 [substance 9, 4-[(8-methoxycarbonyloxy-2,4-dioxobenzoxazin-3-yl-imino)-methyl]-benzoic acid]
- Growth areas (diameter) of siderophore indicator strain [1]: 16 mm
- Growth areas (diameter) of siderophore indicator strain [2]: 0 mm
- Growth areas (diameter) of siderophore indicator strain [3]: 0 mm
- Growth areas (diameter) of siderophore indicator strain (E. coli AB 2847): 24 mm

Compound: O=C(N[C@@H](CO)C(=O)O)c1cccc(O)c1O [N-(2,3-dihydroxybenzoyl)-L-serine]
- siderophore activity (E. coli): effective as a siderophore

Compound: CC(=O)N([O-])CCC[C@@H]1NC(=O)CNC(=O)CNC(=O)CNC(=O)[C@H](CCCN([O-])C(C)=O)NC(=O)[C@H](CCCN([O-])C(C)=O)NC1=O.[Fe+3] [ferrichrome, reference compound] (cyclo(GGG[Orn(N5-OH,N5-Ac)][Orn(N5-OH,N5-Ac)][Orn(N5-OH,N5-Ac)]))
- Growth areas (diameter) of siderophore indicator strain (E. coli AB 2847): 23 mm

Compound: CC(=O)N(O)CCCCCNC(=O)CCC(=O)N(O)CCCCCNC(=O)CCC(=O)N(O)CCCCCN [desferrioxamine B]
- use in diseases caused by an excess of iron [5]: successfully used in diseases which are caused by an excess of iron

Compound: O=C(O)CNC(=O)c1cccc(O)c1O [N-(2,3-dihydroxybenzoyl)glycine]
- siderophore activity (B. subtilis): siderophore for B. subtilis

Compound: COC(=O)Oc1cccc2c(=O)n(CC(=O)O)c(=O)oc12 [substance 1, (8-methoxycarbonyloxy-2,4-dioxobenzoxazin-3-yl)-acetic acid]
- Growth areas (diameter) of siderophore indicator strain [1]: 13 mm
- Growth areas (diameter) of siderophore indicator strain [2]: 18 mm
- Growth areas (diameter) of siderophore indicator strain [3]: 0 mm
- Growth areas (diameter) of siderophore indicator strain (E. coli AB 2847): 15 mm

Compound: COC(=O)Oc1cccc2c(=O)n(CC(=O)NCC(=O)O)c(=O)oc12 [substance 2, (8-methoxycarbonyloxy-2,4-dioxobenzoxazin-3-yl)-acetyl-glycine]
- Growth areas (diameter) of siderophore indicator strain [1]: 21 mm
- Growth areas (diameter) of siderophore indicator strain [2]: 22 mm
- Growth areas (diameter) of siderophore indicator strain [3]: 13 mm
- Growth areas (diameter) of siderophore indicator strain (E. coli AB 2847): 10 mm

Source: US6013647A, “Benzoxazinedione derivatives, method of producing them and uses thereof” (Gruenenthal GmbH, priority 1997, dated 2000)
